Values belong to the molecule of their own block, whether it stands above or below them. Activity calls are given as the source filed them. The rule behind the calls is not given here.
Legend:
[1] = molecular target: T1, Protein cereblon/Lysine-specific demethylase 5B (Homo sapiens) (UniProt Q96SW2+Q9UGL1); experiment: PROTAC activity at CRBN/KDM5B in human 22Rv1 cells assessed as induction of KDM5B degradation at 10 uM incubated for 12 hrs by Western blot analysis relative to control; type: cell-based
T1 sequence (Q96SW2 whole entry, looked up): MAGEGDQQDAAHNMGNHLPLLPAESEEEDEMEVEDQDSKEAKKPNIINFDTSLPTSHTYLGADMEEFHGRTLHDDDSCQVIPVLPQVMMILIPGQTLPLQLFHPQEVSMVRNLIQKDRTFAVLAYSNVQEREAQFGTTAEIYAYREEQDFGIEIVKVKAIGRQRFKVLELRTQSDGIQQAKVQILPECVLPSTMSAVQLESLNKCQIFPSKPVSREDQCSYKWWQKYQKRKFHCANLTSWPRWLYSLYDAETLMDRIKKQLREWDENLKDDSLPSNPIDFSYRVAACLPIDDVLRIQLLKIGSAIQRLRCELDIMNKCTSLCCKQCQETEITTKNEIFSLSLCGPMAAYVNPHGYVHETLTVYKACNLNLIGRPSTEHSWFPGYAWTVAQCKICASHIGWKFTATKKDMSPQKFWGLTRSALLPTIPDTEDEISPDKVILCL
T1 sequence (Q9UGL1 whole entry, looked up): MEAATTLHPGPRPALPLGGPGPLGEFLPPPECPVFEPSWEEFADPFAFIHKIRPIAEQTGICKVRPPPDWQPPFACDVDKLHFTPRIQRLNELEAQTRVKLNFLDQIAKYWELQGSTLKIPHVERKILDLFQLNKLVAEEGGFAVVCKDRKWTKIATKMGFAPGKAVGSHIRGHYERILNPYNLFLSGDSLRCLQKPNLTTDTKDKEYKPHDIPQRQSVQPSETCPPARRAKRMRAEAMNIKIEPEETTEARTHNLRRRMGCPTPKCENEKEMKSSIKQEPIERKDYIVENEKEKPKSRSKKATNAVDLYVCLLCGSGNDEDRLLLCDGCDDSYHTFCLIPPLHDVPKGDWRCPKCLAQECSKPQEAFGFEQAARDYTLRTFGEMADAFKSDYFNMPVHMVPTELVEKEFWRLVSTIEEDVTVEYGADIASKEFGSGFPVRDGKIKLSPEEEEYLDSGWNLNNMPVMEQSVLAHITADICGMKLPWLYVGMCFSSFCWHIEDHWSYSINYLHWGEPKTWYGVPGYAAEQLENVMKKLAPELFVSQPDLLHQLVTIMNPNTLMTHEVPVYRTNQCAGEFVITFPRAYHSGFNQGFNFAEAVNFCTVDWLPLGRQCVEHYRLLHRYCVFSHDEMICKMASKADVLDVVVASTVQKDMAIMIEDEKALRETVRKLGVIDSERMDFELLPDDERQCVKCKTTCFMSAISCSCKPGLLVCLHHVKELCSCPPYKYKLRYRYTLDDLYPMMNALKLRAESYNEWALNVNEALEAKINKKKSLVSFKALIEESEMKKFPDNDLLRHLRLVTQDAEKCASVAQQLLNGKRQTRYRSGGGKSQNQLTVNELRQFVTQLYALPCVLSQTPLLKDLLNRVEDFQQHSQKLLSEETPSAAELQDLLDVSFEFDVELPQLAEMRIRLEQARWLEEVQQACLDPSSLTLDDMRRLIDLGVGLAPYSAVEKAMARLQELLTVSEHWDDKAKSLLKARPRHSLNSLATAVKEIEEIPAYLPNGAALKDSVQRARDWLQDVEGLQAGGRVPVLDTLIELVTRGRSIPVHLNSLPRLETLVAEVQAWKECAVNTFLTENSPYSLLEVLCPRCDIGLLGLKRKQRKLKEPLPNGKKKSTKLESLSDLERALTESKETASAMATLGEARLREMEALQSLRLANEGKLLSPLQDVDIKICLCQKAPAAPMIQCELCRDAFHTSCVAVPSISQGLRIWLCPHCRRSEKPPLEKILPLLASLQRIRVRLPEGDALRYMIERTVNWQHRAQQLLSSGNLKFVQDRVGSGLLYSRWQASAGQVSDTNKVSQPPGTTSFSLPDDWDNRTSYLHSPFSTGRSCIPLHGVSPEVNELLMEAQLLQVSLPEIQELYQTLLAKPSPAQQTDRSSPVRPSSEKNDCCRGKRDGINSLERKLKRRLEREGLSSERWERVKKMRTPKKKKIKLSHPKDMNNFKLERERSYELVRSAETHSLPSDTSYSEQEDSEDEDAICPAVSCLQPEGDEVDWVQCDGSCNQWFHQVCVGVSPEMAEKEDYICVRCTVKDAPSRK

[2] = molecular target: Lysine-specific demethylase 5B (Homo sapiens) (UniProt Q9UGL1); experiment: Inhibition of KDM5B (unknown origin) assessed as increase in H3K4me3 level
Sequence of Lysine-specific demethylase 5B (Homo sapiens) (Q9UGL1 whole entry): as the sequence (Q9UGL1 whole entry, looked up) above

[3] = molecular target: Protein cereblon/Lysine-specific demethylase 5A (Homo sapiens) (UniProt P29375+Q96SW2); experiment: Induction of KDM5A-CRBN (unknown origin) protein protein interaction assessed as ternary complex formation; type: protein assay
Sequence of Protein cereblon/Lysine-specific demethylase 5A (Homo sapiens) (P29375 whole entry, looked up): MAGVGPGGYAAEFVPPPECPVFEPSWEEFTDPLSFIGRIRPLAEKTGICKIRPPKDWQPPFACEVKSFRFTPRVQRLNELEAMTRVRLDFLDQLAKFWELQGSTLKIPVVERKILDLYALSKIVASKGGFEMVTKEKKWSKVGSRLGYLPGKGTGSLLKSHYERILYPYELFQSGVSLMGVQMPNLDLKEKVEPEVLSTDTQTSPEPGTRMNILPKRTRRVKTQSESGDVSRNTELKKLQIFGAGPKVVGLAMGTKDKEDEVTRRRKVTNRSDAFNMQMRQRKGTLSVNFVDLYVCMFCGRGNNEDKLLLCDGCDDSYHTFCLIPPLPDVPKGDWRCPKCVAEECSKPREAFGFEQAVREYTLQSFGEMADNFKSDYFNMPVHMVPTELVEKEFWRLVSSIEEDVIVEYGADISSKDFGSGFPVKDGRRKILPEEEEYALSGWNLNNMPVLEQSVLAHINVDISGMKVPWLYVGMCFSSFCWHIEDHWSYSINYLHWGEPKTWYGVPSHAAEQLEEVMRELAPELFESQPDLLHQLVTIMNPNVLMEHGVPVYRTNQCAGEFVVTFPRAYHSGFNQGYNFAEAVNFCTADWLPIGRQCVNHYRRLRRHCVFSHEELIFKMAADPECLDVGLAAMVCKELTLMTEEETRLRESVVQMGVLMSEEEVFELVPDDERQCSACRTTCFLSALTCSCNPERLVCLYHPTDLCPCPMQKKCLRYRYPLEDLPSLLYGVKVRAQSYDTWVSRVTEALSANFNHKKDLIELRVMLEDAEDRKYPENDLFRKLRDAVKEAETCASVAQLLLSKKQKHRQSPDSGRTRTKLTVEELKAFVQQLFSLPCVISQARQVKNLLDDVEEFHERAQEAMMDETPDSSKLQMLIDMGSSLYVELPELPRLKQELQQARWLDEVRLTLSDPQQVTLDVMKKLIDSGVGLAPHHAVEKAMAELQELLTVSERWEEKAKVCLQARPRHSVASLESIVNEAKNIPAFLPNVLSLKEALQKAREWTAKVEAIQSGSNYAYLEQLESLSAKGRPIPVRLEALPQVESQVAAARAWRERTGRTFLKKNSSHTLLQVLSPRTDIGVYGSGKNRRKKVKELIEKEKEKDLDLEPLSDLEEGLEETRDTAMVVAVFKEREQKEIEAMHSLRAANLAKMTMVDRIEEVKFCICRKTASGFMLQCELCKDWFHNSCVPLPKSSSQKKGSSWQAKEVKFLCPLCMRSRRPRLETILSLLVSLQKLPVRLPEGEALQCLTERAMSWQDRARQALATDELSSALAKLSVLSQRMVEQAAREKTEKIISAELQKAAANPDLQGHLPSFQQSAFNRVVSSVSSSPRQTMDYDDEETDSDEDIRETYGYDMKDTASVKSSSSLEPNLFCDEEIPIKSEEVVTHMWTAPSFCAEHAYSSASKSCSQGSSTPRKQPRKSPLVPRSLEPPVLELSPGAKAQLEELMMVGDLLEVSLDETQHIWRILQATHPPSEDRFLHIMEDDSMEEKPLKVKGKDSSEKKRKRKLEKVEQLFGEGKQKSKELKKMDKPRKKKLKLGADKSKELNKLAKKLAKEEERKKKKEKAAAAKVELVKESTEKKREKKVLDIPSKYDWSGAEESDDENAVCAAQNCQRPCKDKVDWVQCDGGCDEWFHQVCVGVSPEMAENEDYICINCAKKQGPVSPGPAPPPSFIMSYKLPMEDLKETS
Sequence of Protein cereblon/Lysine-specific demethylase 5A (Homo sapiens) (Q96SW2 whole entry, looked up): as the sequence (Q96SW2 whole entry, looked up) above

[4] = molecular target: Protein cereblon/Lysine-specific demethylase 5C (Homo sapiens) (UniProt P41229+Q96SW2); experiment: Induction of KDM5C-CRBN (unknown origin) protein protein interaction assessed as ternary complex formation; type: protein assay
[5] = molecular target: T1, Protein cereblon/Lysine-specific demethylase 5B (Homo sapiens); experiment: PROTAC activity at CRBN/KDM5B in human 22Rv1 cells assessed as reduction in KDM5B level at 0 to 20 uM incubated for 24 hrs by Western blot analysis; type: cell-based; settings: dose 0-20 µM
[6] = molecular target: T1, Protein cereblon/Lysine-specific demethylase 5B (Homo sapiens); experiment: PROTAC activity at CRBN/KDM5B in human 22Rv1 cells assessed as increase in H3K4me3 level at 0 to 20 uM incubated for 24 hrs by Western blot analysis; type: cell-based; settings: dose 0-20 µM
[7] = molecular target: T1, Protein cereblon/Lysine-specific demethylase 5B (Homo sapiens); experiment: PROTAC activity at CRBN/KDM5B in human 22Rv1 cells assessed as reduction in KDM5B level by RT-qPCR analysis; type: cell-based
[8] = molecular target: T1, Protein cereblon/Lysine-specific demethylase 5B (Homo sapiens); experiment: PROTAC activity at CRBN/KDM5B in human 22Rv1 cells assessed as increase in H3K4me3 level by […] analysis; type: cell-based
CWR22R [9] = experiment: Effect on KDM5B transcription in human 22Rv1 cells at 0 to 20 uM measured after 24 hrs by RT-qPCR analysis; type: functional, cell-based; settings: dose 0-20 µM
[10] = molecular target: T1, Protein cereblon/Lysine-specific demethylase 5B (Homo sapiens); experiment: PROTAC activity at CRBN/KDM5B in human 22Rv1 cells assessed as induction of KDM5B degradation at 10 uM in presence of cycloheximide measured after 2 to 12 hrs by Western blot analysis; type: cell-based; settings: time 2-12 hrs
[11] = molecular target: Lysine-specific demethylase 5B (Homo sapiens) (UniProt Q9UGL1); experiment: Induction of FLAG-tagged KDM5B degradation in HEK293T cells overexpressing KDM5B assessed as increase in ubiquitinated FLAG-KDM5B level by immunoprecipitation analysis; type: cell-based
[12] = molecular target: T1, Protein cereblon/Lysine-specific demethylase 5B (Homo sapiens); experiment: Induction of KDM5B-CRBN protein protein interaction in human 22Rv1 cells at 20 uM incubated for 12 hrs in presence of MG-132 by Western blot analysis; type: cell-based
[13] = molecular target: T1, Protein cereblon/Lysine-specific demethylase 5B (Homo sapiens); experiment: PROTAC activity at CRBN/KDM5B in human 22Rv1 cells assessed as induction of KDM5B degradation at 5 uM in presence of CPI-455 measured after 24 hrs by Western blot analysis; type: cell-based
[14] = molecular target: T1, Protein cereblon/Lysine-specific demethylase 5B (Homo sapiens); experiment: PROTAC activity at CRBN/KDM5B in human 22Rv1 cells assessed as induction of KDM5B degradation at 5 uM in presence of thalidomide measured after 24 hrs by Western blot analysis; type: cell-based
[15] = molecular target: T1, Protein cereblon/Lysine-specific demethylase 5B (Homo sapiens); experiment: PROTAC activity at CRBN/KDM5B in human 22Rv1 cells assessed as induction of KDM5B degradation at 5 uM in presence of MG-132 measured after 24 hrs by Western blot analysis; type: cell-based
CWR22R [16] = experiment: Cytotoxicity against human 22Rv1 cells assessed as reduction in cell proliferation at 0 to 20 uM measured after 24 to 48 hrs by MTS assay; type: toxicity, cell-based; settings: dose lower 0 µM, time lower 24 hrs, dose upper 20 µM, time upper 48 hrs
[17] = molecular target: Lysine-specific demethylase 5B (Homo sapiens) (UniProt Q9UGL1); experiment: Inhibition of KDM5B in human 22Rv1 cells assessed as upregulation of H3K4me3 level at 20 uM incubated for 24 hrs by Western blot analysis; type: cell-based
[18] = molecular target: Lysine-specific demethylase 5B (Homo sapiens) (UniProt Q9UGL1); experiment: Inhibition of KDM5B non-catalytic activity in human 22Rv1 cells assessed as inhibition of KDM5B binding to SETDB1 by measuring reduction in H3K9me3 level at 20 uM incubated for 24 hrs by Co-IP analysis; type: cell-based
[19] = molecular target: Lysine-specific demethylase 5B (Homo sapiens) (UniProt Q9UGL1); experiment: Inhibition of KDM5B in human 22Rv1 cells assessed as upregulation of HHLA3 mRNA expression at 20 uM incubated for 24 hrs by RT-qPCR analysis; type: cell-based
[20] = molecular target: Lysine-specific demethylase 5B (Homo sapiens) (UniProt Q9UGL1); experiment: Inhibition of KDM5B in human 22Rv1 cells assessed as upregulation of IFI35 mRNA expression at 20 uM incubated for 24 hrs by RT-qPCR analysis; type: cell-based
[21] = molecular target: Lysine-specific demethylase 5B (Homo sapiens) (UniProt Q9UGL1); experiment: Inhibition of KDM5B in human 22Rv1 cells assessed as upregulation of IFI27L2 mRNA expression at 20 uM incubated for 24 hrs by RT-qPCR analysis; type: cell-based
[22] = molecular target: Lysine-specific demethylase 5B (Homo sapiens) (UniProt Q9UGL1); experiment: Inhibition of KDM5B in human 22Rv1 cells assessed as upregulation of IRF3 mRNA expression at 20 uM incubated for 24 hrs by RT-qPCR analysis; type: cell-based
[23] = test system: Protein cereblon/Lysine-specific demethylase 5B (Homo sapiens), Q96SW2+Q9UGL1 [L685W]; experiment: PROTAC activity at CRBN/KDM5B L685W mutant in KDM5B-deficient human 22Rv1 cells harboring reintroduced KDM5B L685W assessed as induction of protein degradation at 20 uM incubated for 24 hrs by Western blot analysis; type: cell-based
CWR22R [24] = experiment: Downregulation of KDM5B-induced H3K9me3 level in KDM5B-deficient human 22Rv1 cells harboring reintroduced KDM5B L685W at 20 uM incubated for 24 hrs by Western blot analysis; type: functional, cell-based
CWR22R [25] = experiment: Upregulation of HHLA3 mRNA expression in KDM5B-deficient human 22Rv1 cells harboring reintroduced KDM5B L685W at 20 uM incubated for 24 hrs by RT-qPCR analysis; type: functional, cell-based
CWR22R [26] = experiment: Upregulation of IFI35 mRNA expression in KDM5B-deficient human 22Rv1 cells harboring reintroduced KDM5B L685W at 20 uM incubated for 24 hrs by RT-qPCR analysis; type: functional, cell-based
CWR22R [27] = experiment: Upregulation of IFI27L2 mRNA expression in KDM5B-deficient human 22Rv1 cells harboring reintroduced KDM5B L685W at 20 uM incubated for 24 hrs by RT-qPCR analysis; type: functional, cell-based
CWR22R [28] = experiment: Upregulation of IRF3 mRNA expression in KDM5B-deficient human 22Rv1 cells harboring reintroduced KDM5B L685W at 20 uM incubated for 24 hrs by RT-qPCR analysis; type: functional, cell-based

Activity [1]: 0%
SMILES: N#Cc1cnn2c(=O)cc(-c3ccc(OCCNC(=O)CCCNc4cccc5c4C(=O)N(C4CCC(=O)NC4=O)C5=O)cc3)[nH]c12 (centres undefined)

Activity [1]: 10.8%
SMILES: N#Cc1cnn2c(=O)cc(-c3ccc(OCCNC(=O)CCCCCNc4cccc5c4C(=O)N(C4CCC(=O)NC4=O)C5=O)cc3)[nH]c12 (centres undefined)

inhibition [2]: Active
SMILES: CC(C)(C)OC(=O)COc1ccc(-c2cc(=O)n3ncc(C#N)c3[nH]2)cc1

inhibition [2]: Active
SMILES: CC(C)(C)OC(=O)NCCOc1ccc(-c2cc(=O)n3ncc(C#N)c3[nH]2)cc1

Activity [1]: 5.27%
SMILES: N#Cc1cnn2c(=O)cc(-c3ccc(OCCNC(=O)CCOCCNc4cccc5c4C(=O)N(C4CCC(=O)NC4=O)C5=O)cc3)[nH]c12 (centres undefined)

Second part, the molecule before the results:

SMILES: N#Cc1cnn2c(=O)cc(-c3ccc(OCCNC(=O)CCOCCOCCNc4cccc5c4C(=O)N(C4CCC(=O)NC4=O)C5=O)cc3)[nH]c12 (centres undefined)
Activity [1]: 0%

SMILES: N#Cc1cnn2c(=O)cc(-c3ccc(OCC(=O)NCCOCCNC(=O)COc4cccc5c4C(=O)N(C4CCC(=O)NC4=O)C5=O)cc3)[nH]c12 (centres undefined)
Activity [1]: 0%

SMILES: N#Cc1cnn2c(=O)cc(-c3ccc(OCCNC(=O)CCOCCOc4cccc5c4C(=O)N(C4CCC(=O)NC4=O)C5=O)cc3)[nH]c12 (centres undefined)
Activity [1]: 6.31%

SMILES: N#Cc1cnn2c(=O)cc(-c3ccc(OCC(=O)NCCOCCOc4cccc5c4C(=O)N(C4CCC(=O)NC4=O)C5=O)cc3)[nH]c12 (centres undefined)
Activity [1]: 68.3%
Activity [3]: inactive
Activity [4]: inactive
Activity [5]: Active
Activity [6]: Active
Activity [7]: Active
Activity [8]: Active
Activity (CWR22R [9]): inactive
Activity [10]: Active
Activity [11]: Active
Activity [12]: Active
Activity [13]: inactive
Activity [14]: inactive
Activity [15]: inactive
Activity (CWR22R [16]): Non-Toxic
inhibition [17]: Active
inhibition [18]: Active
inhibition [19]: Active
inhibition [20]: Active
inhibition [21]: Active
inhibition [22]: Active
Activity [23]: Active
Activity (CWR22R [24]): Active
Activity (CWR22R [25]): Active
Activity (CWR22R [26]): Active
Activity (CWR22R [27]): Active
Activity (CWR22R [28]): Active

SMILES: CC(C)c1c(-c2ccccc2)[nH]c2c(C#N)cnn2c1=O
inhibition [17]: Active

SMILES: N#Cc1cnn2c(=O)cc(-c3ccc(OCC(=O)NCCOCCNC(=O)CNc4cccc5c4C(=O)N(C4CCC(=O)NC4=O)C5=O)cc3)[nH]c12 (centres undefined)
Activity [1]: 0%

SMILES: N#Cc1cnn2c(=O)cc(-c3ccc(OCCNC(=O)CCOCCOCCOCCOCCNc4cccc5c4C(=O)N(C4CCC(=O)NC4=O)C5=O)cc3)[nH]c12 (centres undefined)
Activity [1]: 0%

SMILES: N#Cc1cnn2c(=O)cc(-c3ccc(OCCNC(=O)CCOCCOCCOCCNc4cccc5c4C(=O)N(C4CCC(=O)NC4=O)C5=O)cc3)[nH]c12 (centres undefined)
Activity [1]: 0%

Source: ChEMBL document CHEMBL5584225, “Discovery of an efficacious KDM5B PROTAC degrader GT-653 up-regulating IFN response genes in prostate cancer” (Eur J Med Chem, 2024)
